Measured values reported in ChEMBL document CHEMBL5291721, “A preclinical secondary pharmacology resource illuminates target-adverse drug reaction associations of marketed drugs” (Nat Commun, 2023).

Key:
[1] = molecular target: Sodium-dependent noradrenaline transporter (Homo sapiens, UniProt P23975)
[2] = molecular target: Delta-type opioid receptor (Homo sapiens, UniProt P41143)
Motilin receptor = Motilin receptor (Homo sapiens, UniProt O43193)
[3] = molecular target: T1, Prostaglandin G/H synthase 1 (Rattus norvegicus, UniProt Q63921); type: functional
T1 sequence (Q63921 whole entry): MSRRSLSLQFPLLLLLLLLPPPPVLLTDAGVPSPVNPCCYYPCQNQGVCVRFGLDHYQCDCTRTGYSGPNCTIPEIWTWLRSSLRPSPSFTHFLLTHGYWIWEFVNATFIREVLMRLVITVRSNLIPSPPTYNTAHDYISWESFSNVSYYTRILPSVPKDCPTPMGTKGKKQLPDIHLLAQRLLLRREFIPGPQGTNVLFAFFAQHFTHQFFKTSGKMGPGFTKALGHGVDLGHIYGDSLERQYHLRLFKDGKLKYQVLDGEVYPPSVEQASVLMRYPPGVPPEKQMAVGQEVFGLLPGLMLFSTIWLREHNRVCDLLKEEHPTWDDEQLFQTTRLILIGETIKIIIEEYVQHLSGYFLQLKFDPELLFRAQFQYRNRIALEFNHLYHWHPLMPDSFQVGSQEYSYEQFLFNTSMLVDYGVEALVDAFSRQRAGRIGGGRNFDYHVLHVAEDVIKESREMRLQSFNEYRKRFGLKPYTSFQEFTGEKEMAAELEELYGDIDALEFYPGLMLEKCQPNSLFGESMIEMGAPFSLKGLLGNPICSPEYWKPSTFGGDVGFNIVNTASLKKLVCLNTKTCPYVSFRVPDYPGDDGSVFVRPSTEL

[4] = molecular target: T2, Equilibrative nucleoside transporter 1 (Homo sapiens, UniProt Q99808)
T2 sequence (Q99808 whole entry): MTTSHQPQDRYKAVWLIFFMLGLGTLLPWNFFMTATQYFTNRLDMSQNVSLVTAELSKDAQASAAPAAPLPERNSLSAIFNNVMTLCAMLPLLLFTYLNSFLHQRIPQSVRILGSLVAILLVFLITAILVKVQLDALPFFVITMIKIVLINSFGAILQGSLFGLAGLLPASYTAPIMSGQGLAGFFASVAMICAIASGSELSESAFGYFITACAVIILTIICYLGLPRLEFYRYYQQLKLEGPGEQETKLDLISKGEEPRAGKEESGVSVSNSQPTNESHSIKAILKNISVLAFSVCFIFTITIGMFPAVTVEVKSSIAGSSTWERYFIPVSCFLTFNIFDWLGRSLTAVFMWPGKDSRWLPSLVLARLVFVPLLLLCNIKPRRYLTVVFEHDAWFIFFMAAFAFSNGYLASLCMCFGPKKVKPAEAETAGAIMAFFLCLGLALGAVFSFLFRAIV

[5] = molecular target: T3, Type-1 angiotensin II receptor (Homo sapiens, UniProt P30556)
T3 sequence (P30556 whole entry): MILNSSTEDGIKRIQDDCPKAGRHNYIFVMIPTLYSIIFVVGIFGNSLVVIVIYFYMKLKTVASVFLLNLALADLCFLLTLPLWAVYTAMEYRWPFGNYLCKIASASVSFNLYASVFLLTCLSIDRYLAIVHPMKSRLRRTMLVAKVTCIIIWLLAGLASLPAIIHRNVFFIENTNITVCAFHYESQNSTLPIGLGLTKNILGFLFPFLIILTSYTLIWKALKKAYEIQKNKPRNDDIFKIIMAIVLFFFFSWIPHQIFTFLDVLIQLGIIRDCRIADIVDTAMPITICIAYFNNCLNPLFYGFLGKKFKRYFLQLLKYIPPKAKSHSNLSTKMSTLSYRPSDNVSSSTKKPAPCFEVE

[6] = molecular target: T4, Neuropeptide Y receptor type 1 (Homo sapiens, UniProt P25929); conditions: read-out: AC50
T4 sequence (P25929 whole entry): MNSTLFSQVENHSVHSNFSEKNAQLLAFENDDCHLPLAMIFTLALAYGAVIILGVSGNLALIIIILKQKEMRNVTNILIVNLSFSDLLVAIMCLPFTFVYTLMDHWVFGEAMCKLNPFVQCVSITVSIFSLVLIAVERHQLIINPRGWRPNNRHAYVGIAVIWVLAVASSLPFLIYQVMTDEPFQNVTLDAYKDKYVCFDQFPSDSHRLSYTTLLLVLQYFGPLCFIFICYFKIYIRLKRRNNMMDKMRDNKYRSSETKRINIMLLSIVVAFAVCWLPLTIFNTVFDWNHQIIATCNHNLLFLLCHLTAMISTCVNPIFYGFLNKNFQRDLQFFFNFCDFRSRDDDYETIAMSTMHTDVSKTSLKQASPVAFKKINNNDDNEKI

[7] = molecular target: Glutamate receptor ionotropic, NMDA 1 (Rattus norvegicus, UniProt P35439)
Thromboxane A2 receptor = molecular target: T5, Thromboxane A2 receptor (Homo sapiens, UniProt P21731)
T5 sequence (P21731 whole entry): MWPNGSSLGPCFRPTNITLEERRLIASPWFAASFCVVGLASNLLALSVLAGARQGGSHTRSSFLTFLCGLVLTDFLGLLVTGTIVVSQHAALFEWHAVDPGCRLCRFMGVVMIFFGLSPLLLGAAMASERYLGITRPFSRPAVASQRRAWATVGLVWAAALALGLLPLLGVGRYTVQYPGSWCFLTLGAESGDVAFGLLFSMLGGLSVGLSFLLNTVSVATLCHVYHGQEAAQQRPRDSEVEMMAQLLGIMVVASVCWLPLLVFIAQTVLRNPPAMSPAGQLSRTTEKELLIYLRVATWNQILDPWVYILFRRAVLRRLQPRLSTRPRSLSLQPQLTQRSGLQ

[8] = molecular target: T6, Muscarinic acetylcholine receptor M2 (Homo sapiens, UniProt P08172); type: functional, cell-based
T6 sequence (P08172 whole entry): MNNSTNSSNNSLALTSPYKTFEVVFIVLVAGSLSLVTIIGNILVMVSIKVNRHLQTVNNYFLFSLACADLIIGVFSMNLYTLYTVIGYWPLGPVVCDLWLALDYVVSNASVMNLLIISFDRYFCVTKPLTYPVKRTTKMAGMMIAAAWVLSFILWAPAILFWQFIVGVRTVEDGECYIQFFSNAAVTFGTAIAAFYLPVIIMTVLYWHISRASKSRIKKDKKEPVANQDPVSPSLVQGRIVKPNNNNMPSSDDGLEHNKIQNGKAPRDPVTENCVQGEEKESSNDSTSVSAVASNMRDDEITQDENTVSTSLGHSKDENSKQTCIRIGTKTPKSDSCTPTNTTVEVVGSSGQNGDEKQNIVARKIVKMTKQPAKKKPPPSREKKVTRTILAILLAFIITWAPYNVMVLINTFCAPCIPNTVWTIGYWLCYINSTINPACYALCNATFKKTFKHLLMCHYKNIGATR

[9] = molecular target: Sodium-dependent dopamine transporter (Homo sapiens, UniProt Q01959)
Further: assay procedure not described here.

Sodium-dependent noradrenaline transporter, sequence (P23975 whole entry): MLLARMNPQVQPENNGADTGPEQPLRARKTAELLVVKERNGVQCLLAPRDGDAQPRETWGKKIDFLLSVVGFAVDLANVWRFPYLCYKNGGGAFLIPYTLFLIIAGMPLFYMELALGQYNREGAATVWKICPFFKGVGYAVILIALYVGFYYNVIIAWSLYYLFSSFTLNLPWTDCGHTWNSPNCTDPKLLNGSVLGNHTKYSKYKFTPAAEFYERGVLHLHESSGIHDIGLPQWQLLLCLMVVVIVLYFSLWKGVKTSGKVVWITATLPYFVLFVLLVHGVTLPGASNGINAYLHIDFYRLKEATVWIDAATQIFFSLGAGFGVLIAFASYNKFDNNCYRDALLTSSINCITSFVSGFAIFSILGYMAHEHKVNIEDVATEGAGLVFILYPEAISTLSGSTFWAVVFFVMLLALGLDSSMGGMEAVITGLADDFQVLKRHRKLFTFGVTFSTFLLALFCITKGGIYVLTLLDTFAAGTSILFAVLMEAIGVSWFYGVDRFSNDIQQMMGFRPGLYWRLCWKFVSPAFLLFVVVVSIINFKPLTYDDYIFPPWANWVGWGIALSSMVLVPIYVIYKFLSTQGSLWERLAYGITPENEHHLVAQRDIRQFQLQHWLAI
Motilin receptor, sequence (O43193 whole entry): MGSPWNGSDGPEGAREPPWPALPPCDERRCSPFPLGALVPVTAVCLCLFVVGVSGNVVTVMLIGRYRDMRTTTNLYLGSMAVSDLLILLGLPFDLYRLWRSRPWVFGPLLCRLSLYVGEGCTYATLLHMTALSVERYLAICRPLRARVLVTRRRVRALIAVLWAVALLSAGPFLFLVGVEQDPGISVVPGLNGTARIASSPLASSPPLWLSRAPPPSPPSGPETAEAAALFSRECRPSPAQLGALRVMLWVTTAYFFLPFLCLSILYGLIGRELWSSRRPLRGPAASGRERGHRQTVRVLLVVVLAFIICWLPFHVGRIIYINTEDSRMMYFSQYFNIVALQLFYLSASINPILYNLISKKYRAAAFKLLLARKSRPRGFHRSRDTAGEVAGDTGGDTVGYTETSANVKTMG
Sodium-dependent dopamine transporter, sequence (Q01959 whole entry): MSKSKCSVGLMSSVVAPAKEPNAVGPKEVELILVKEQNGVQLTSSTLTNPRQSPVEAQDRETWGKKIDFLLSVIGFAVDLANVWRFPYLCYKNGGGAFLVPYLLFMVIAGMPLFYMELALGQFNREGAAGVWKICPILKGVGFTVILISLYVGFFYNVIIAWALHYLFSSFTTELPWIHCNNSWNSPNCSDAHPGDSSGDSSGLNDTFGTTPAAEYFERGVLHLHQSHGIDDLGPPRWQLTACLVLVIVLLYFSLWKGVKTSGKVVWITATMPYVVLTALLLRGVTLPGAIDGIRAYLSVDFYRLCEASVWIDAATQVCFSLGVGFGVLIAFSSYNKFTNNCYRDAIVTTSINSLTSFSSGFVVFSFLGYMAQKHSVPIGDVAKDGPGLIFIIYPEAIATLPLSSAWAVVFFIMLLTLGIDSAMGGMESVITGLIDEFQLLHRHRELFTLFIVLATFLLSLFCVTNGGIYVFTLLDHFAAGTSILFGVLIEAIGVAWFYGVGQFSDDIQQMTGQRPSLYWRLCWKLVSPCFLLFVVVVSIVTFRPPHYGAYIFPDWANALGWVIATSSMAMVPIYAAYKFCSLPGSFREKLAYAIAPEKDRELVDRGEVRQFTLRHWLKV
Delta-type opioid receptor, sequence (P41143 whole entry): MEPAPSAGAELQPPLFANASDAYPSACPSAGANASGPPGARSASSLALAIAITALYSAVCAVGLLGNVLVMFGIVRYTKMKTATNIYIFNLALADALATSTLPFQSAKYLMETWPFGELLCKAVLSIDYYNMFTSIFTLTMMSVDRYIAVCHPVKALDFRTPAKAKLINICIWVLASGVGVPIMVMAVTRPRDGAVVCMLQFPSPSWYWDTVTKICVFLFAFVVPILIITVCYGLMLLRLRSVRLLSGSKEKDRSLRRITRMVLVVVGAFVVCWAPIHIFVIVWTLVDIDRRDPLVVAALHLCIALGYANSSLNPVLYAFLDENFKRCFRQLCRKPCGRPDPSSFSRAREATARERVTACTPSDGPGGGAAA

CCOC(=O)c1cncn1[C@H](C)c1ccccc1 [ETOMIDATE]
AC50 [1]: > 10 µM
AC50 [2]: > 30 µM
AC50 (Motilin receptor): > 10 µM
AC50 [3]: > 10 µM
AC50 [4]: > 10 µM
AC50 [5]: > 10 µM
AC50 [6]: > 10 µM
AC50 [7]: > 10 µM
AC50 (Thromboxane A2 receptor): > 10 µM
AC50 [8]: > 10 µM
AC50 [9]: > 10 µM

CN1CCC(=C2c3ccccc3CCc3cccnc32)CC1 [AZATADINE]
AC50 [1]: > 30 µM
AC50 [2]: > 30 µM
AC50 (Motilin receptor): > 10 µM
AC50 [3]: > 30 µM
AC50 [4]: > 30 µM
AC50 [5]: > 30 µM
AC50 [6]: > 30 µM
AC50 [7]: > 10 µM
AC50 (Thromboxane A2 receptor): > 30 µM
AC50 [8]: > 10 µM
AC50 [9]: > 30 µM

CNC1=Nc2ccc(Cl)cc2C(c2ccccc2)=[N+]([O-])C1 [CHLORDIAZEPOXIDE]
AC50 [1]: > 30 µM
AC50 [2]: > 30 µM
AC50 (Motilin receptor): > 10 µM
AC50 [3]: > 30 µM
AC50 [4]: > 30 µM
AC50 [5]: > 30 µM
AC50 [6]: > 30 µM
AC50 [7]: > 10 µM
AC50 (Thromboxane A2 receptor): > 30 µM
AC50 [8]: > 10 µM
AC50 [9]: > 30 µM

Nc1ncn([C@H]2C[C@H](O)[C@@H](CO)O2)c(=O)n1 [DECITABINE]
AC50 [1]: > 30 µM
AC50 [2]: > 30 µM
AC50 (Motilin receptor): > 30 µM
AC50 [3]: > 30 µM
AC50 [4]: > 30 µM
AC50 [5]: > 30 µM
AC50 [6]: > 30 µM
AC50 [7]: > 30 µM
AC50 (Thromboxane A2 receptor): > 30 µM
AC50 [8]: > 30 µM
AC50 [9]: > 30 µM
